These results are taken from patent US10189836B2, “Therapeutic compounds, compositions and methods of use thereof” (Genentech, Inc., priority 2015, dated 2019).

In experiment [1] the target is isolated recombinant JAK1 kinase domain (Homo sapiens (Human), UniProt P23458). Put plainly: JAK1 enzyme assay (Caliper LabChip, Ki). It counts as biochemical. To be noted: isolated recombinant JAK1 kinase domain, 1.5 nM enzyme, ATP 25 μM.
Experiment [2] addresses isolated recombinant JAK2 kinase domain (Homo sapiens (Human), UniProt O60674). Put plainly: JAK2 enzyme assay (Caliper LabChip, Ki). It counts as biochemical. Particulars: isolated recombinant JAK2 kinase domain, 0.2 nM enzyme, ATP 25 μM.

isolated recombinant JAK2 kinase domain, sequence (O60674 849-1124): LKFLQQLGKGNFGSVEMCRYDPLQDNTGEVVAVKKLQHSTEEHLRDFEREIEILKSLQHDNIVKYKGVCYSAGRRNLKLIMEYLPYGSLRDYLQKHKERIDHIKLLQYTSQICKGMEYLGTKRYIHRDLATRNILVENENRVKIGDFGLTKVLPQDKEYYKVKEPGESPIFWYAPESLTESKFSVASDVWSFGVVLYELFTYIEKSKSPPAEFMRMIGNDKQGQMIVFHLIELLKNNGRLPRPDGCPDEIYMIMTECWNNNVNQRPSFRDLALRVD
isolated recombinant JAK1 kinase domain, sequence (P23458 875-1153): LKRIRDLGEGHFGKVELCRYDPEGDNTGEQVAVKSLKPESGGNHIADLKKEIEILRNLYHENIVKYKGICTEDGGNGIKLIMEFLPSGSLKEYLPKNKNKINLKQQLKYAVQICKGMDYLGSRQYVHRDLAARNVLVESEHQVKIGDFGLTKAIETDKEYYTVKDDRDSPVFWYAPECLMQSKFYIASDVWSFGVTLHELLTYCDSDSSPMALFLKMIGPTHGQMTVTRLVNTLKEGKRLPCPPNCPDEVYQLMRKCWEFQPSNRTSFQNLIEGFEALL

The Ki is the dissociation constant of the complex between target and ligand, obtained from inhibition or displacement. Consider `CC(F)(F)CNC1CCN(C(=O)Cn2cc(Nc3nc4c(N5CC6CCC(C5)N6C(=O)N5CC(C(F)(F)F)C5)cccn4n3)cn2)CC1` [Example 120, 1-[4-(2,2-difluoropropylamino)-1-piperidyl]-2-[4-[[8-[8-[3-(trifluoromethyl)azetidine-1-carbonyl]-3,8-diazabicyclo[3.2.1]octan-3-yl]-[1,2,4]triazolo[1,5-a]pyridin-2-yl]amino]pyrazol-1-yl]ethanone], for which the inhibition constant Ki in experiment [1] was determined as 0.6 nM; in experiment [2] it was 0.7 nM.

Take `O=C(Cn1cc(Nc2nc3c(N4CC5CCC(C4)N5C(=O)N4CC(C(F)(F)F)C4)cccn3n2)cn1)N1CCC(CN2CCOCC2)CC1` [Example 121, 1-[4-(morpholinomethyl)-1-piperidyl]-2-[4-[[8-[8-[3-(trifluoromethyl)azetidine-1-carbonyl]-3,8-diazabicyclo[3.2.1]octan-3-yl]-[1,2,4]triazolo[1,5-a]pyridin-2-yl]amino]pyrazol-1-yl]ethanone]: the inhibition constant Ki in experiment [1] and in experiment [2] was 0.7 nM throughout.

Consider `CN1CCN(C(=O)Cn2cc(Nc3nc4c(N5CC6CCCC(C5)N6C(=O)N5CC(C(F)(F)F)C5)cccn4n3)cn2)CC1` [Example 122, 1-(4-methylpiperazin-1-yl)-2-[4-[[8-[9-[3-(trifluoromethyl)azetidine-1-carbonyl]-3,9-diazabicyclo[3.3.1]nonan-3-yl]-[1,2,4]triazolo[1,5-a]pyridin-2-yl]amino]pyrazol-1-yl]ethanone], for which the results for the inhibition constant (Ki) in experiment [1] and in experiment [2] were 0.4 nM and 0.3 nM, respectively.

For the molecule `CC(C(=O)N1CCN(C)CC1)n1cc(Nc2nc3c(N4CC5CCC(C4)N5C(=O)C4CC(C(F)(F)F)C4)cccn3n2)cn1` (stereo not drawn) [Example 123, 1-(4-methylpiperazin-1-yl)-2-[4-[[8-[8-(3-(trifluoromethyl)-cyclobutanecarbonyl]-3,8-diazabicyclo[3.2.1]octan-3-yl]-[1,2,4]triazolo[1,5-a]pyridin-2-yl]amino]pyrazol-1-yl]propan-1-one], the Ki in experiment [1] and in experiment [2] was 0.5 nM throughout.

On to `CC(C(=O)N1CCN(C)CC1)n1cc(Nc2nc3c(N4CC5CCC(C4)N5C(=O)C4CC(C(F)(F)F)C4)cccn3n2)cn1` (stereo not drawn) [Example 124, 1-(4-methylpiperazin-1-yl)-2-[4-[[8-[8-(3-(trifluoromethyl)-cyclobutanecarbonyl]-3,8-diazabicyclo[3.2.1]octan-3-yl]-[1,2,4]triazolo[1,5-a]pyridin-2-yl]amino]pyrazol-1-yl]propan-1-one], for which the Ki in experiment [1] came out at 1.9 nM; in experiment [2] it was 3.7 nM.

As to `CC(C(=O)N1CCN(C)CC1)n1cc(Nc2nc3c(N4CC5CCC(C4)N5C(=O)C4CC(C(F)(F)F)C4)cccn3n2)cn1` (stereo not drawn) [Example 125, 1-(4-methylpiperazin-1-yl)-2-[4-[[8-[8-(3-(trifluoromethyl)-cyclobutanecarbonyl]-3,8-diazabicyclo[3.2.1]octan-3-yl]-[1,2,4]triazolo[1,5-a]pyridin-2-yl]amino]pyrazol-1-yl]propan-1-one], the figures for the Ki in experiment [1] and in experiment [2] were 0.6 nM and 0.4 nM, respectively.

In the case of `CC(C(=O)N1CCN(C)CC1)n1cc(Nc2nc3c(N4CC5CCC(C4)N5C(=O)C4CC(C(F)(F)F)C4)cccn3n2)cn1` (stereo not drawn) [Example 126, 1-(4-methylpiperazin-1-yl)-2-[4-[[8-[8-(3-(trifluoromethyl)-cyclobutanecarbonyl]-3,8-diazabicyclo[3.2.1]octan-3-yl]-[1,2,4]triazolo[1,5-a]pyridin-2-yl]amino]pyrazol-1-yl]propan-1-one], the inhibitory constant (Ki) in experiment [1] came to 2.5 nM; in experiment [2], 1.6 nM.

With `CN1CCN(C(=O)Cn2cc(Nc3nc4c(N5C[C@H]6CC[C@@H](C5)[C@H]6N(C)CCC(F)(F)F)cccn4n3)cn2)CC1` [Example 127, 1-(4-methylpiperazin-1-yl)-2-[4-[[8-[(1S,5R)-8-[methyl(3,3,3-trifluoropropyl)amino]-3-azabicyclo[3.2.1]octan-3-yl]-[1,2,4]triazolo[1,5-a]pyridin-2-yl]amino]pyrazol-1-yl]ethanone], the results for the Ki in experiment [1] and in experiment [2] were 4.6 nM and 11.5 nM, respectively.

`CN1CCN(C(=O)Cn2cc(Nc3nc4c(N5C[C@H]6CC[C@@H](C5)[C@H]6OCc5ccc(C#N)cc5)cccn4n3)cn2)CC1` [Example 128, 4-[[(1S,5R)-3-[2-[[1-[2-(4-methylpiperazin-1-yl)-2-oxo-ethyl]pyrazol-4-yl]amino]-[1,2,4]triazolo[1,5-a]pyridin-8-yl]-3-azabicyclo[3.2.1]octan-8-yl]oxymethyl]benzonitrile]: the Ki in experiment [1] is 0.4 nM; in experiment [2], 1 nM.

For the molecule `CN1CCN(C(=O)Cn2cc(Nc3nc4c(N5C[C@H]6CC[C@@H](C5)[C@H]6OCc5cccc(C#N)c5)cccn4n3)cn2)CC1` [Example 129, 3-[[(1S,5R)-3-[2-[[1-[2-(4-methylpiperazin-1-yl)-2-oxo-ethyl]pyrazol-4-yl]amino]-[1,2,4]triazolo[1,5-a]pyridin-8-yl]-3-azabicyclo[3.2.1]octan-8-yl]oxymethyl]benzonitrile], the Ki in experiment [1] worked out at 0.6 nM; in experiment [2], 2.3 nM.

In the case of `CC(C)(C#N)CNC1CCN(C(=O)Cn2cc(Nc3nc4c(N5CC6CCC(C5)N6C(=O)N5CC(C(F)(F)F)C5)cccn4n3)cn2)CC1` [Example 131, 2,2-dimethyl-3-[[1-[2-[4-[[8-[8-[3-(trifluoromethyl)azetidine-1-carbonyl]-3,8-diazabicyclo[3.2.1]octan-3-yl]-[1,2,4]triazolo[1,5-a]pyridin-2-yl]amino]pyrazol-1-yl]acetyl]-4-piperidyl]amino]-propanenitrile], the inhibitory constant (Ki) stood at 1.1 nM in experiment [1] and 0.7 nM in experiment [2].

Consider `CSc1ccccc1S(=O)(=O)N1C2CCC1CN(c1cccn3nc(Nc4cnn(CC(=O)N5CCN(C)CC5)c4)nc13)C2` [Example 132, 1-(4-methylpiperazin-1-yl)-2-[4-[[8-[8-(2-methylsulfanylphenyl)sulfonyl-3,8-diazabicyclo[3.2.1]octan-3-yl]-[1,2,4]triazolo[1,5-a]pyridin-2-yl]amino]pyrazol-1-yl]ethanone], for which the Ki in experiment [1] and in experiment [2] was 0.4 nM in each case.

Regarding `CN1CCN(C(=O)Cn2cc(Nc3nc4c(N5CC6CCC(C5)N6S(=O)(=O)c5cccc(C(F)(F)F)c5)cccn4n3)cn2)CC1` [Example 133, 1-(4-methylpiperazin-1-yl)-2-[4-[[8-[8-(3-(trifluoromethyl)phenyl]sulfonyl-3,8-diazabicyclo[3.2.1]octan-3-yl]-[1,2,4]triazolo[1,5-a]pyridin-2-yl]amino]pyrazol-1-yl]ethanone], the values for the inhibitory constant (Ki) in experiment [1] and in experiment [2] were 0.8 nM and 1.5 nM, respectively.

In the case of `CN1CCN(C(=O)Cn2cc(Nc3nc4c(N5CC6CCC(C5)N6S(=O)(=O)c5ccc(F)cc5)cccn4n3)cn2)CC1` [Example 134, 2-[4-[[8-[8-(4-fluorophenyl)sulfonyl-3,8-diazabicyclo[3.2.1]octan-3-yl]-[1,2,4]triazolo[1,5-a]pyridin-2-yl]amino]pyrazol-1-yl]-1-(4-methylpiperazin-1-yl)ethanone], the inhibition constant Ki is 0.4 nM in experiment [1] and 0.5 nM in experiment [2].

As to `CN1CCN(C(=O)Cn2cc(Nc3nc4c(N5CC6CCC(C5)N6S(=O)(=O)c5ccc(C(F)(F)F)cc5)cccn4n3)cn2)CC1` [Example 135, 1-(4-methylpiperazin-1-yl)-2-[4-[[8-[8-(4-(trifluoromethyl)phenyl]sulfonyl-3,8-diazabicyclo[3.2.1]octan-3-yl]-[1,2,4]triazolo[1,5-a]pyridin-2-yl]amino]pyrazol-1-yl]ethanone], the Ki in experiment [1] was 0.2 nM; in experiment [2], 0.4 nM.
